# Measurements reported in article PMC1716192, “A Plant-Derived Morphinan as a Novel Lead Compound Active against Malaria Liver Stages” (PLoS Medicine, 2006).
# Tested on: P. yoelii transmissibility (oocysts, sporozoites in A. stephensi)
# Experiment: Transmissibility to A. stephensi mosquitoes fed on treated mice
# Type: in vivo
# Details: 200 mg/kg, A. stephensi fed on treated mice (unpublished data)
# Procedure: In order to test for inhibitory activity against P. yoelii blood stages, four groups of five naive mice were inoculated (intraperitoneally) with 10^6 P. yoelii–infected red blood cells on day 0. Three hours later, one group was treated with tazopsine at 100 mg/kg, another with NCP-tazopsine at 200 mg/kg, whereas the other two groups acted as controls (respectively, water and 10% Tween 80). The doses were repeated daily until day +3. For the group treated with NCP- tazopsine and its control group, the animals were anesthetised 2 h following the administration of the last dose (day +3), and placed for 30 min over a cage with 100 female laboratory-bred A. stephensi. Oocysts were enumerated in 30 mosquito midguts dissected 8 d later, and the number of sporozoites in the salivary glands dissected from 30 insects was ascertained a further 7 d later. All the experiments were performed in two independent duplicates, and enumeration of parasites in blood smears and mosquitoes was conducted in a blinded fashion.
structure (smiles),measurement,value
"COC1=C2[C@@H]3[C@H](O)c4ccc(OC)c(O)c4[C@]2(CCN3C2CCCC2)C[C@H](O)[C@@H]1O [NCP-tazopsine, N-cyclopentyl-tazopsine]",effect on the transmissibility of the parasite,no effect
